According to PubChem BioAssay AID1963967 (Molecular Pharmacology Branch, DTP, NCI, 2024):
pIC50: −log10 of the molar value.

Test system: 855422-203-R-J1-PDC spheroids with HUVEC/MSC, viability
Assay: Anticancer human tumor 855422-203-R-J1-PDC patient-derived bladder carcinoma cell line growth inhibition [PI3K]
Settings: for viability, T/C: stronger effect = lower value
Outline: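 Tumor cells grown as multi-cell spheroids with HUVEC endothelial cells and MSC fibroblast-like stroma were treated with targeted agents combined with inavolisib, alpelisib, duvelisib or copanlisib. Doses fell in half-log steps from near clinical Cmax, else from 10 microM. Viability was measured.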

[1] = curve of first compound, second compound 0.00316 µM
[2] = curve of first compound, second compound 0.01 µM
[3] = curve of first compound, second compound 0.0316 µM
[4] = curve of first compound, second compound 0.1 µM
[5] = curve of first compound, second compound 0.316 µM
[6] = curve of first compound, second compound 1 µM
[7] = second compound 0.00316 µM, first compound 0.0316 µM
[8] = second compound 0.00316 µM, first compound 0.1 µM
[9] = second compound 0.00316 µM, first compound 0.316 µM
[10] = second compound 0.00316 µM, first compound 1 µM
[11] = second compound 0.00316 µM, first compound 3.16 µM
[12] = second compound 0.00316 µM, first compound 10 µM
[13] = second compound 0.01 µM, first compound 0.0316 µM
[14] = second compound 0.01 µM, first compound 0.1 µM
[15] = second compound 0.01 µM, first compound 0.316 µM
[16] = second compound 0.01 µM, first compound 1 µM
[17] = second compound 0.01 µM, first compound 3.16 µM
[18] = second compound 0.01 µM, first compound 10 µM
[19] = second compound 0.0316 µM, first compound 0.0316 µM
[20] = second compound 0.0316 µM, first compound 0.1 µM
[21] = second compound 0.0316 µM, first compound 0.316 µM
[22] = second compound 0.0316 µM, first compound 1 µM
[23] = second compound 0.0316 µM, first compound 3.16 µM
[24] = second compound 0.0316 µM, first compound 10 µM
[25] = second compound 0.1 µM, first compound 0.0316 µM
[26] = second compound 0.1 µM, first compound 0.1 µM
[27] = second compound 0.1 µM, first compound 0.316 µM
[28] = second compound 0.1 µM, first compound 1 µM
[29] = second compound 0.1 µM, first compound 3.16 µM
[30] = second compound 0.1 µM, first compound 10 µM
[31] = second compound 0.316 µM, first compound 0.0316 µM
[32] = second compound 0.316 µM, first compound 0.1 µM
[33] = second compound 0.316 µM, first compound 0.316 µM
[34] = second compound 0.316 µM, first compound 1 µM
[35] = second compound 0.316 µM, first compound 3.16 µM
[36] = second compound 0.316 µM, first compound 10 µM
[37] = second compound 1 µM, first compound 0.0316 µM
[38] = second compound 1 µM, first compound 0.1 µM
[39] = second compound 1 µM, first compound 0.316 µM
[40] = second compound 1 µM, first compound 1 µM
[41] = second compound 1 µM, first compound 3.16 µM
[42] = second compound 1 µM, first compound 10 µM
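Also: agents incubated with spheroids for one week before read-out.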
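For viability, T/C in this document: 100% = DMSO vehicle-treated control wells.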

Cn1ncc(Cl)c1-c1cc(C(=O)NC(CN)Cc2cccc(F)c2)sc1Cl (stereo not given) + COc1c(OCCCN2CCOCC2)ccc2c3n(c(=NC(=O)c4cnc(N)nc4)nc12)CCN3
pIC50 [1]: 6.14 | pIC50 [2]: 6.20 | pIC50 [3]: 6.75 | pIC50 [4]: > 7.50 | pIC50 [5]: > 7.50 | pIC50 [6]: > 7.50 | viability, T/C [7]: 88.5% | viability, T/C [8]: 73.7% | viability, T/C [9]: 63.2% | viability, T/C [10]: 45.5% | viability, T/C [11]: 26.9% | viability, T/C [12]: 6.73% | viability, T/C [13]: 77.8% | viability, T/C [14]: 69.8% | viability, T/C [15]: 62% | viability, T/C [16]: 42.7% | viability, T/C [17]: 19.6% | viability, T/C [18]: 5.83% | viability, T/C [19]: 60.7% | viability, T/C [20]: 54.4% | viability, T/C [21]: 45.2% | viability, T/C [22]: 29.4% | viability, T/C [23]: 13% | viability, T/C [24]: 3.13% | viability, T/C [25]: 27.6% | viability, T/C [26]: 27.3% | viability, T/C [27]: 19.7% | viability, T/C [28]: 15.4% | viability, T/C [29]: 7.63% | viability, T/C [30]: 0.88% | viability, T/C [31]: 8.42% | viability, T/C [32]: 7.12% | viability, T/C [33]: 8.39% | viability, T/C [34]: 7.12% | viability, T/C [35]: 4.22% | viability, T/C [36]: 0.34% | viability, T/C [37]: 3.34% | viability, T/C [38]: 4.22% | viability, T/C [39]: 3.37% | viability, T/C [40]: 4.04% | viability, T/C [41]: 1.54% | viability, T/C [42]: 1.32%

CNC(=O)c1ccc(N2C(=S)N(c3ccc(C#N)c(C(F)(F)F)c3)C(=O)C2(C)C)cc1F + COc1c(OCCCN2CCOCC2)ccc2c3n(c(=NC(=O)c4cnc(N)nc4)nc12)CCN3
pIC50 [1]: < 5.00 | pIC50 [2]: < 5.00 | pIC50 [3]: < 5.00 | pIC50 [4]: > 7.50 | pIC50 [5]: > 7.50 | pIC50 [6]: > 7.50 | viability, T/C [7]: 94.3% | viability, T/C [8]: 79.5% | viability, T/C [9]: 90.7% | viability, T/C [10]: 83.1% | viability, T/C [11]: 71.5% | viability, T/C [12]: 66.5% | viability, T/C [13]: 74% | viability, T/C [14]: 85.1% | viability, T/C [15]: 74.5% | viability, T/C [16]: 76.1% | viability, T/C [17]: 81.4% | viability, T/C [18]: 68.5% | viability, T/C [19]: 63.4% | viability, T/C [20]: 69.3% | viability, T/C [21]: 70.8% | viability, T/C [22]: 61.2% | viability, T/C [23]: 62.4% | viability, T/C [24]: 58.2% | viability, T/C [25]: 30.2% | viability, T/C [26]: 32.3% | viability, T/C [27]: 30.2% | viability, T/C [28]: 32.9% | viability, T/C [29]: 34.5% | viability, T/C [30]: 29.4% | viability, T/C [31]: 11.5% | viability, T/C [32]: 10.8% | viability, T/C [33]: 8.16% | viability, T/C [34]: 12.7% | viability, T/C [35]: 9.19% | viability, T/C [36]: 10.1% | viability, T/C [37]: 4.1% | viability, T/C [38]: 4.74% | viability, T/C [39]: 4.6% | viability, T/C [40]: 4.66% | viability, T/C [41]: 5.91% | viability, T/C [42]: 4.28%

CC(Nc1ncnc2nc[nH]c12)c1cc2cccc(Cl)c2c(=O)n1-c1ccccc1 (stereo not given)
viability, T/C (compound 0.0316 µM): 107% [middle of 8 runs] | viability, T/C (compound 0.1 µM): 108% [middle of 8 runs] | viability, T/C (compound 0.316 µM): 115% [middle of 8 runs] | viability, T/C (compound 1 µM): 107% [middle of 8 runs] | viability, T/C (compound 3.16 µM): 98.8% [middle of 8 runs] | viability, T/C (compound 10 µM): 86.2% [middle of 8 runs] | pIC50 (compound alone, run of 05/09/2023): < 5.00

CNC(=O)c1ccc(N2C(=S)N(c3ccc(C#N)c(C(F)(F)F)c3)C(=O)C2(C)C)cc1F + CC(Nc1ccc2c(c1)OCCn1cc(N3C(=O)OCC3C(F)F)nc1-2)C(N)=O
pIC50 [1]: < 5.00 | pIC50 [2]: < 5.00 | pIC50 [3]: < 5.00 | pIC50 [4]: < 5.00 | pIC50 [5]: 6.58 | pIC50 [6]: > 7.50 | viability, T/C [7]: 106% | viability, T/C [8]: 83.8% | viability, T/C [9]: 95.8% | viability, T/C [10]: 81.2% | viability, T/C [11]: 72.9% | viability, T/C [12]: 65.4% | viability, T/C [13]: 102% | viability, T/C [14]: 91.2% | viability, T/C [15]: 90% | viability, T/C [16]: 77.3% | viability, T/C [17]: 79% | viability, T/C [18]: 72.5% | viability, T/C [19]: 86.6% | viability, T/C [20]: 82.1% | viability, T/C [21]: 79.9% | viability, T/C [22]: 66.6% | viability, T/C [23]: 72.8% | viability, T/C [24]: 64.3% | viability, T/C [25]: 76.9% | viability, T/C [26]: 76.7% | viability, T/C [27]: 83.3% | viability, T/C [28]: 63.1% | viability, T/C [29]: 62% | viability, T/C [30]: 52.8% | viability, T/C [31]: 51.4% | viability, T/C [32]: 46.9% | viability, T/C [33]: 53.6% | viability, T/C [34]: 49.1% | viability, T/C [35]: 52.7% | viability, T/C [36]: 43.1% | viability, T/C [37]: 37.2% | viability, T/C [38]: 36.4% | viability, T/C [39]: 37% | viability, T/C [40]: 41.3% | viability, T/C [41]: 38.5% | viability, T/C [42]: 33.8%

Cn1cnc2c(F)c(Nc3ccc(Br)cc3Cl)c(C(=O)NOCCO)cc21 + COc1c(OCCCN2CCOCC2)ccc2c3n(c(=NC(=O)c4cnc(N)nc4)nc12)CCN3
pIC50 [1]: 5.61 | pIC50 [2]: 5.80 | pIC50 [3]: 6.55 | pIC50 [4]: > 8.02 | pIC50 [5]: > 8.02 | pIC50 [6]: > 8.02 | viability, T/C (second compound 0.00316 µM, first compound 0.00949 µM): 94.1% | viability, T/C (second compound 0.00316 µM, first compound 0.03 µM): 88.1% | viability, T/C (second compound 0.00316 µM, first compound 0.0949 µM): 91.4% | viability, T/C (second compound 0.00316 µM, first compound 0.3 µM): 93.5% | viability, T/C (second compound 0.00316 µM, first compound 0.949 µM): 90.1% | viability, T/C (second compound 0.00316 µM, first compound 3 µM): 41.2% | viability, T/C (second compound 0.01 µM, first compound 0.00949 µM): 73.6% | viability, T/C (second compound 0.01 µM, first compound 0.03 µM): 90.6% | viability, T/C (second compound 0.01 µM, first compound 0.0949 µM): 82% | viability, T/C (second compound 0.01 µM, first compound 0.3 µM): 85.9% | viability, T/C (second compound 0.01 µM, first compound 0.949 µM): 66.2% | viability, T/C (second compound 0.01 µM, first compound 3 µM): 29.1% | viability, T/C (second compound 0.0316 µM, first compound 0.00949 µM): 64% | viability, T/C (second compound 0.0316 µM, first compound 0.03 µM): 64% | viability, T/C (second compound 0.0316 µM, first compound 0.0949 µM): 60.8% | viability, T/C (second compound 0.0316 µM, first compound 0.3 µM): 47.1% | viability, T/C (second compound 0.0316 µM, first compound 0.949 µM): 34.6% | viability, T/C (second compound 0.0316 µM, first compound 3 µM): 12.7% | viability, T/C (second compound 0.1 µM, first compound 0.00949 µM): 30.8% | viability, T/C (second compound 0.1 µM, first compound 0.03 µM): 26.1% | viability, T/C (second compound 0.1 µM, first compound 0.0949 µM): 22.2% | viability, T/C (second compound 0.1 µM, first compound 0.3 µM): 21.8% | viability, T/C (second compound 0.1 µM, first compound 0.949 µM): 10.2% | viability, T/C (second compound 0.1 µM, first compound 3 µM): 2.98% | viability, T/C (second compound 0.316 µM, first compound 0.00949 µM): 8.62% | viability, T/C (second compound 0.316 µM, first compound 0.03 µM): 6.53% | viability, T/C (second compound 0.316 µM, first compound 0.0949 µM): 5.43% | viability, T/C (second compound 0.316 µM, first compound 0.3 µM): 4.82% | viability, T/C (second compound 0.316 µM, first compound 0.949 µM): 2.2% | viability, T/C (second compound 0.316 µM, first compound 3 µM): 0.34% | viability, T/C (second compound 1 µM, first compound 0.00949 µM): 3.01% | viability, T/C (second compound 1 µM, first compound 0.03 µM): 3.36% | viability, T/C (second compound 1 µM, first compound 0.0949 µM): 1.65% | viability, T/C (second compound 1 µM, first compound 0.3 µM): 2.9% | viability, T/C (second compound 1 µM, first compound 0.949 µM): 0.38% | viability, T/C (second compound 1 µM, first compound 3 µM): 0.99%
